The source of these data is patent publication US8877716B2, “Peptide derivatives, preparation and uses thereof” (Vect-Horus, priority 2010, dated 2014).

One data set can be described thus: in vitro. As to conditions: blood.
For data set [1] the following is noted: Demeule et al., 2008; cited from earlier work.

In the case of `CSCC[C@@H]1NC(=O)[C@H](N)CSSC[C@@H](C(=O)O)NC(=O)CNC(=O)[C@H](CCCNC(=N)N)NC(=O)[C@H](CC(C)C)NC(=O)[C@H](CCCNC(=N)N)NC(=O)[C@@H]2CCCN2C1=O` [SEQ ID NO: 17], the half-life (in general, the time needed for the level to fall by half in the phase considered) in “in vitro” was 180 min.

For the molecule transferrin [Tf], in data set [1], the “Kin (cerebral transfer coefficient)” value is 0.0003 mL/s/g.
